{"source": "paper PMC11162475", "about": "“Rule-based omics mining reveals antimicrobial macrocyclic peptides against drug-resistant clinical isolates” (Nature Communications, 2024)", "format_in_all_cases": "cell-based", "key": {"[1]": {"test": "Mammalian cytotoxicity, CCK-8 assay", "conditions": "human", "method": "(§1) Bioactivity assay of the crude extract\n(§2) Protease stability of massatide A\n(§3) Thermal stability of massatide A […]\n(§4) and 1% penicillin -streptomycin. […]\n(§5) and CO 2-controllable incubator with 5% CO 2. All the cell experiments were performed […]\n(§6) Cell viability was determined by the CCK -8 assay. HeLa and Hek -293T cells were […]\n(§7) µg/ml. At the end of the fixed incubation period (24 h), cells were washed with PBS to remove excess compound. We added 100 µl fresh medium and 10 µl CCK-8 reagent.\n(§8) After 2 h incubation at 37°C, absorbance at 450 nm was recorded using a microplate reader. All experiments were performed in triplicate (n=3 independent experiments).\n(§9) Growth kinetics of S. aureus\n(§10) Massatide A or B was prepared in a 96-well plate at the concentration of 8×MIC, 4×MIC, 2×MIC, 1×MIC and 0.5×MIC , respectively. The MHB medium with no compound was used as a control. Then, the overnight culture of S. aureus ATCC 25923 cells was added to the medium at 1:1,000. The plate was incubated with shaking in SpectraMax iD3 (MOLECULAR DEVICES) at 30 ℃. OD600 was measured every 30 min for 36 hours. To analyze the lysis, 1mL of S. aureus ATCC 25923 culture (OD600 1.0) was treated with massatide A or vancomycin (10×MIC) for 24h. An untreated sample was used as a negative control.\n(§11) Time-dependent killing assay\n(§12) An overnight culture of S. aureus ATCC 25923 cells was diluted at 1:10,000 in MHB medium and incubated at 37 ℃, 200 rpm for 2 hours to reach the early exponential.\n(§13) Then, massatide A or vancomycin was added to the culture at the concentration of 10×MIC. Bacteria were still cultivated at 37 ℃, 200 rpm. Culture with no antibiotics was used as a negative control. 10 μL aliquots were removed at intervals, centrifuged, and resuspended in 1 ml PBS. Serially diluted (10-fold) suspensions were plated on MHB agar and incubated at 37 ℃ overnight for counting of colony-forming units.\n(§14) Experiments were performed in triplicate.\n(§15) Sequential culturing of S. aureus ATCC 25923 was performed in the presence of a subinhibitory concentration of massatide A to observe whether the resistance developed. […]"}, "HeLa cells": {"system": "HeLa cells", "test": "Mammalian cytotoxicity, CCK-8 assay", "method": "as §1, §2, §3, §4, §5, §6, §7, §8, §9, §10, §11, §12, §13, §14, §15"}, "Bacillus subtilis 168": {"system": "Bacillus subtilis 168", "test": "microbe, parasite or virus in culture", "conditions": "168, 20 h", "method": "(§16) For MIC determination, Staphylococcus aureus ATCC25923, Bacillus subtilis 168, Micrococcus luteus DSM1790, Enterococcus faecalis OG1RF, Enterococcus faecium MCC2763, Escherichia coli DH5α and Pseudomonas aeruginosa PAO1 were used as indicator strains. Nisin and vancomycin were used as positive controls. A dilution series of massatide A, massatide B, vancomycin (16, 8, 4, 2, 1, 0.5, 0.25, 0.125, 0.0625, 0.0313 μg/mL) and sistertide A1, kebanetide A1, kebanetide A2, nisin (64, 32, 16, 8, 4, 2, 1, 0.5, 0.25, 0.125 μg/mL) were prepared in 96-well plate from 1–10th column. The indicator strains were added to the compound-containing well. The indicator strain culture with no antibiotics was prepared in the 11th column. The 12th column was filled with 200 μL empty MHB medium. The 96-well plate was incubated at 37 °C for 20 h (30 °C for M. luteus and B. subtilis). The OD600 was detected on MULTISKAN Sky (Thermo Scientific) and MIC values were determined. The MIC values of clinical isolates were determined by Sichuan Primed Shines Bio-tech Co., Ltd. (China) following similar protocol. Levofloxacin was used as a positive control."}, "[2]": {"system": "Micrococcus luteus DSM1790", "test": "microbe, parasite or virus in culture", "conditions": "DSM1790, 20 h", "method": "as §16"}, "[3]": {"system": "Staphylococcus aureus ATCC25923", "test": "microbe, parasite or virus in culture", "conditions": "ATCC25923, 20 h", "method": "as §16"}, "[4]": {"system": "Enterococcus faecalis OG1RF", "test": "microbe, parasite or virus in culture", "conditions": "OG1RF, 20 h", "method": "as §16"}, "[5]": {"system": "Enterococcus faecium MCC2763", "test": "microbe, parasite or virus in culture", "conditions": "MCC2763, 20 h", "method": "as §16"}, "[6]": {"system": "Pseudomonas aeruginosa PAO1", "conditions": "PAO1, 20 h", "method": "as §16"}, "Escherichia coli DH5α": {"system": "Escherichia coli DH5α", "conditions": "DH5α, 20 h", "method": "as §16"}, "[7]": {"system": "Micrococcus luteus DSM1790", "test": "Kirby-Bauer assay, zone of inhibition (agar well)", "conditions": "M. luteus DSM1790; 10 μL DMSO stock (3.2 or 1.6 mg/mL) in well of soft LB agar, 30 °C, 20 h", "method": "(§17) The stock solution of massatide A (1) and B (1a) 3.2 mg/mL were prepared in DMSO. 40 μL overnight culture of Micrococcus luteus DSM1790 was added to 20 mL soft Luria-Bertani agar (1% agar), and then poured into a plate. 10 μL tip was used to make two wells on the plate. 10 μL massatide A (1) or B (1a) solution was added in one of the wells, while in the other well, 10 μL DMSO was added as a negative control. The plates were incubated at 30 °C for 20 h to observe the zone of inhibition. Staphylococcus aureus ATCC25923 was also used to observe the inhibition zone using a similar method. The only difference is incubating at 37 °C. Stock solutions of sistertide A1, kebanetide A1 and A2 were 3.2 mg/mL, 1.6 mg/mL and 1.6 mg/mL, respectively. The method to observe the activity of these compounds individually was the same as that of massatide."}, "[8]": {"system": "Staphylococcus aureus ATCC25923", "test": "Kirby-Bauer assay, zone of inhibition (agar well)", "conditions": "S. aureus ATCC25923; 10 μL of 3.2 mg/mL DMSO stock in well of soft LB agar, 37 °C, 20 h", "method": "as §17"}}}
{"smiles": "C/C=C1\\NC(=O)C(N(C)C)C(C)SC[C@@H](C(=O)N/C(=C\\C)C(=O)N[C@H](C(=O)N[C@@H](C)C(=O)N[C@H](C)C(=O)N[C@@H](Cc2ccccc2)C(=O)N[C@@H](C)C(=O)NC2C(=O)NCC(=O)N[C@@H](Cc3ccc(O)cc3)C(=O)N[C@@H](Cc3ccccc3)C(=O)N[C@H](C)C(=O)N/C=C\\SC2C)C(C)C)NC(=O)[C@@H]2CCCN2C(=O)[C@H](C(C)C)NC1=O", "note": "(some centres unmarked) [Massatide B (1a), massatide B]", "values": [{"measurement": "IC50 at 24 h", "setting": "[1]", "result": "> 200", "unit": "µg/mL"}, {"measurement": "cytotoxicity against Hela cells", "setting": "HeLa cells", "result": "did not exhibit any significant cytotoxicity"}, {"measurement": "MIC", "setting": "Bacillus subtilis 168", "result": 4, "unit": "µg/mL"}, {"measurement": "MIC", "setting": "[2]", "result": 0.25, "unit": "µg/mL"}, {"measurement": "MIC", "setting": "[3]", "result": 1, "unit": "µg/mL"}, {"measurement": "MIC", "setting": "[4]", "result": 4, "unit": "µg/mL"}, {"measurement": "MIC", "setting": "[5]", "result": 4, "unit": "µg/mL"}, {"measurement": "MIC", "setting": "[6]", "result": ">64", "unit": "µg/mL"}, {"measurement": "MIC", "setting": "Escherichia coli DH5α", "result": ">64", "unit": "µg/mL"}, {"measurement": "inhibitory activity (zone of inhibition)", "setting": "[7]", "result": "strong inhibitory activity"}, {"measurement": "inhibitory activity (zone of inhibition)", "setting": "[8]", "result": "strong inhibitory activity"}]}
